Data on 18 compounds can be found in patent publication US20220242844A1, “CANNABINOID DERIVATIVES” (CANOPY GROWTH CORPORATION, priority 2019, published 2022).

One test concerns the target T1, human CB1 receptor (Homo sapiens, UniProt P21554).
T1 construct: host or cells: CHO-K1 (Chinese hamster ovary) cells, stably transfected; membranes prepared in house
The test can be described thus: CB1 radioligand ([3H]CP 55,940) competitive binding assay. The note with it: for Selectivity CB1: fold difference in binding affinity, CB1 over CB2, 1.00 = about the same affinity for both receptors.

For a further test, the target named is T2, human CB2 receptor (Homo sapiens, UniProt P34972).
T2 construct: host or cells: CHO-K1 (Chinese hamster ovary) cells, stably transfected; membranes prepared in house
T2 sequence (P34972 whole entry): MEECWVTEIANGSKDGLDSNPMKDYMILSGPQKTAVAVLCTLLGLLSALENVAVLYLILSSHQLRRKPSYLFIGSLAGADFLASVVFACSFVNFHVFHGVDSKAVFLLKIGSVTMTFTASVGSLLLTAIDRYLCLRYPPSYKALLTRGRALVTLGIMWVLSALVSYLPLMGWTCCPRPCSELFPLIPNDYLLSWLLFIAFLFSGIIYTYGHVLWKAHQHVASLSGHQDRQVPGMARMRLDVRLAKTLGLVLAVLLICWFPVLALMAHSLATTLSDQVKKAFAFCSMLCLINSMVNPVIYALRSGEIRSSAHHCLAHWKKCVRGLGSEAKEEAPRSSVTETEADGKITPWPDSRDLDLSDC
The test can be described thus: CB2 radioligand ([3H]CP 55,940) competitive binding assay. The note with it: for Selectivity CB2: fold difference in binding affinity, CB2 over CB1, 1.00 = about the same affinity for both receptors.

The mark [1] stands for this setting: [3H]CP 55,940 displacement, membranes of CHO-K1 cells expressing human CB1 receptor, read-out: CB1 IC50.
Setting [2] is: [3H]CP 55,940 displacement, membranes of CHO-K1 cells expressing human CB2 receptor, read-out: CB2 IC50.

The term IC50 denotes the concentration at which inhibition is half-maximal.

Like-named read-outs stand apart in the source and are kept apart here. Bounds are passed on as bounds.

T1 sequence (P21554 whole entry): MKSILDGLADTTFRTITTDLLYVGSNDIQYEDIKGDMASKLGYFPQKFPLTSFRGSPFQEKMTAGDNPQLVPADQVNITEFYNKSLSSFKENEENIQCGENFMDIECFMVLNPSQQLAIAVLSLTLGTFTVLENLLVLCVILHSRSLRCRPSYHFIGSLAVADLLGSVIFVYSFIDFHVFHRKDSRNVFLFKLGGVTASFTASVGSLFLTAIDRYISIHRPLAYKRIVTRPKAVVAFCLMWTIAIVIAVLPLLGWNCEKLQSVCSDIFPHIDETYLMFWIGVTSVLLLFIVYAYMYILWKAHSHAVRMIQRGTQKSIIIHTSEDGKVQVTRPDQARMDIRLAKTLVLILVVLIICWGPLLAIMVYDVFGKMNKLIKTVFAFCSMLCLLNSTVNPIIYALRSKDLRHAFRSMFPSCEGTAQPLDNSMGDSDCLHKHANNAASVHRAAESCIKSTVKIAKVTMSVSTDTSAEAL

For the compound `C=C(C)[C@@H]1CCC(C)=C[C@H]1c1c(O)cc(CCCCC)c2c1OC(CC(C)=O)OC2=O` (some centres unmarked) [Compound 14d, 7-hydroxy-8-(3-methyl-6-(prop-1-en-2-yl)cyclohex-2-en-1-yl)-2-(2-oxopropyl)-5-pentyl-4H-benzo[d][1,3]dioxin-4-one], the IC50 at human CB1 receptor (setting [1]) is 10 to 19.9 µM; at human CB2 receptor (setting [2]), 1 to 9.9 µM. The “Selectivity CB2” value on human CB2 receptor is reported as 4.92 fold.
Consider `CCCCCc1cc(O)c(C2C=C(C)CCC2)c2c1C(=O)OC(C)(C)O2` (centres unmarked) [Compound 2c, 7-hydroxy-2,2-dimethyl-8-(3-methylcyclohex-2-en-1-yl)-5-pentyl-4H-benzo[d][1,3]dioxin-4-one], for which, at human CB1 receptor, the IC50 lay in the range of 1 to 9.9 µM and the “Selectivity CB1” value was determined as 2.76 fold. This compound gave an IC50 on human CB2 receptor of 10 to 19.9 µM.
The compound `C=C(C)C1CCC(C)=CC1c1c(O)cc(CCCCC)c2c1OC(C)(CC(C)=O)OC2=O` (centres unmarked) [Compound 7d, 7-hydroxy-2-methyl-8-(3-methyl-6-(prop-1-en-2-yl)cyclohex-2-en-1-yl)-2-(2-oxopropyl)-5-pentyl-4H-benzo[d][1,3]dioxin-4-one] had an IC50 on human CB1 receptor above 20 µM. In addition, on human CB2 receptor, the IC50 was in the range of 1 to 9.9 µM and the “Selectivity CB2” value is listed as 13.33 fold.
`C=C(C)[C@@H]1CCC(C)=C[C@H]1c1c(O)cc(CCCCC)c2c1OC(C)OC2=O` (some centres unmarked) [Compound 16d, 7-hydroxy-2-methyl-8-(3-methyl-6-(prop-1-en-2-yl)cyclohex-2-en-1-yl)-5-pentyl-4H-benzo[d][1,3]dioxin-4-one] displayed an IC50 at human CB1 receptor of 1 to 9.9 µM. In addition, at human CB2 receptor, the concentration for half-maximal inhibition (IC50) lay within 1 to 9.9 µM and the “Selectivity CB2” value turned out to be 2.44 fold.
Turning to `C=C(C)C1CCC(C)=CC1c1c(O)cc(CCCCC)c2c1OC(c1ccccc1)OC2=O` (centres unmarked) [Compound 3d, 7-hydroxy-8-(3-methyl-6-(prop-1-en-2-yl)cyclohex-2-en-1-yl)-5-pentyl-2-phenyl-4H-benzo[d][1,3]dioxin-4-one], the figures for the concentration for half-maximal inhibition (IC50) on human CB1 receptor (setting [1]) and at human CB2 receptor (setting [2]) were below 1 µM and 1 to 9.9 µM, respectively. Besides, the “Selectivity CB1” value at human CB1 receptor is 2.53 fold.
Regarding `C=C(C)[C@@H]1CCC(C)=C[C@H]1c1c(O)cc(CCCCC)c2c1OC(CC)OC2=O` (some centres unmarked) [Compound 17d, 2-ethyl-7-hydroxy-8-(3-methyl-6-(prop-1-en-2-yl)cyclohex-2-en-1-yl)-5-pentyl-4H-benzo[d][1,3]dioxin-4-one], the 50% inhibitory concentration (IC50) is 1 to 9.9 µM at human CB1 receptor (setting [1]) and below 1 µM on human CB2 receptor (setting [2]). For the same compound, the “Selectivity CB2” value on human CB2 receptor came out at 4.35 fold.
Compound `CCCCCc1cc(O)c(C2C=C(C)CCC2)c2c1C(=O)OC(CC(C)=O)(c1ccccc1)O2` (centres unmarked) [Compound 12c, 7-hydroxy-8-(3-methylcyclohex-2-en-1-yl)-2-(2-oxopropyl)-5-pentyl-2-phenyl-4H-benzo[d][1,3]dioxin-4-one] displayed a half-maximal inhibitory concentration (IC50) on human CB1 receptor of 1 to 9.9 µM. In addition, at human CB2 receptor, the half-maximal inhibitory concentration (IC50) lay within 1 to 9.9 µM and the “Selectivity CB2” value turned out to be 1.37 fold.
Take `CCCCCc1cc(O)c(C2C=C(C)CCC2)c2c1C(=O)OCO2` (centres unmarked) [Compound 1c, 7-hydroxy-8-(3-methylcyclohex-2-en-1-yl)-5-pentyl-4H-benzo[d][1,3]dioxin-4-one]: on human CB2 receptor (setting [2]), the IC50 is 1 to 9.9 µM.
`C=C(C)[C@@H]1CCC(C)=C[C@H]1c1c(O)cc(CCC)c2c1OCOC2=O` [Compound 23d, 7-hydroxy-8-(3-methyl-6-(prop-1-en-2-yl)cyclohex-2-en-1-yl)-5-propyl-4H-benzo[d][1,3]dioxin-4-one]: the IC50 at human CB1 receptor (setting [1]) and at human CB2 receptor (setting [2]) was 1 to 9.9 µM throughout. For the same compound, the “Selectivity CB1” value at human CB1 receptor amounted to 1.00 fold. For the same compound, on human CB2 receptor, the “Selectivity CB2” value is 1.00 fold.
`C=C(C)[C@@H]1CCC(C)=C[C@H]1c1c(O)cc(CCCCC)c2c1OC(C)(C)OC2=O` [Compound 2d, 7-hydroxy-2,2-dimethyl-8-(3-methyl-6-(prop-1-en-2-yl)cyclohex-2-en-1-yl)-5-pentyl-4H-benzo[d][1,3]dioxin-4-one]: the concentration for half-maximal inhibition (IC50) on human CB1 receptor (setting [1]) is above 20 µM; on human CB2 receptor (setting [2]), 10 to 19.9 µM. For the same compound, the “Selectivity CB2” value on human CB2 receptor is listed as 2.00 fold.
Turning to `C=C(C)[C@@H]1CCC(C)=C[C@H]1c1c(O)cc(CCCCC)c2c1OC(CC(C)=O)(c1ccccc1)OC2=O` (some centres unmarked) [Compound 12d, 7-hydroxy-8-(3-methyl-6-(prop-1-en-2-yl)cyclohex-2-en-1-yl)-2-(2-oxopropyl)-5-pentyl-2-phenyl-4H-benzo[d][1,3]dioxin-4-one], at human CB1 receptor, the IC50 fell in the range of 1 to 9.9 µM and the “Selectivity CB1” value came out at 1.00 fold. For the same compound, at human CB2 receptor, the half-maximal inhibitory concentration (IC50) lay within 1 to 9.9 µM and the “Selectivity CB2” value was 1.00 fold.
Turning to `CCCCCc1cc(O)c(C2C=C(C)CCC2)c2c1C(=O)OC1(CCCC1)O2` (centres unmarked) [Compound 9c, 7-hydroxy-8-(3-methylcyclohex-2-en-1-yl)-5-pentyl-spiro[1,3-benzodioxine-2,1′-cyclopentane]-4-one], the concentration for half-maximal inhibition (IC50) on human CB1 receptor fell in the range of 10 to 19.9 µM. In addition, on human CB2 receptor, the 50% inhibitory concentration (IC50) is 1 to 9.9 µM and the “Selectivity CB2” value is 3.32 fold.
Turning to `CCCCCc1cc(O)c(C2C=C(C)CCC2)c2c1C(=O)OC(CC(C)=O)O2` (centres unmarked) [Compound 14c, 7-hydroxy-8-(3-methylcyclohex-2-en-1-yl)-2-(2-oxopropyl)-5-pentyl-4H-benzo[d][1,3]dioxin-4-one], the 50% inhibitory concentration (IC50) at human CB1 receptor (setting [1]) and on human CB2 receptor (setting [2]) was 1 to 9.9 µM each time. Further, at human CB2 receptor, the “Selectivity CB2” value is 2.06 fold.
Turning to `C=C(C)[C@@H]1CCC(C)=C[C@H]1c1c(O)cc(CCCCC)c2c1OCOC2=O` [Compound 1d, 7-hydroxy-8-(3-methyl-6-(prop-1-en-2-yl)cyclohex-2-en-1-yl)-5-pentyl-4H-benzo[d][1,3]dioxin-4-one], the IC50 on human CB1 receptor (setting [1]) and on human CB2 receptor (setting [2]) was 1 to 9.9 µM in each case. Besides, the “Selectivity CB1” value on human CB1 receptor is 1.00 fold. The “Selectivity CB2” value at human CB2 receptor turned out to be 1.00 fold.
Turning to `C=C(C)[C@@H]1CCC(C)=C[C@H]1c1c(O)cc(CCCCC)c2c1OC(C)(COC)OC2=O` (some centres unmarked) [Compound 11d, 7-hydroxy-2-(methoxymethyl)-2-methyl-8-(3-methyl-6-(prop-1-en-2-yl)cyclohex-2-en-1-yl)-5-pentyl-4H-benzo[d][1,3]dioxin-4-one], the IC50 at human CB1 receptor was above 20 µM; on human CB2 receptor, 10 to 19.9 µM. Moreover, the “Selectivity CB2” value on human CB2 receptor is 1.89 fold.
Regarding `C=C(C)[C@@H]1CCC(C)=C[C@H]1c1c(O)cc(CCC)c2c1OC(CC(C)=O)(c1ccccc1)OC2=O` (some centres unmarked) [Compound 24d, 7-hydroxy-8-(3-methyl-6-(prop-1-en-2-yl)cyclohex-2-en-1-yl)-2-(2-oxopropyl)-2-phenyl-5-propyl-4H-benzo[d][1,3]dioxin-4-one], on human CB1 receptor, the IC50 was in the range of 1 to 9.9 µM and the “Selectivity CB1” value is recorded as 1.00 fold. Moreover, at human CB2 receptor, the half-maximal inhibitory concentration (IC50) was in the range of 1 to 9.9 µM and the “Selectivity CB2” value is listed as 1.00 fold.
As for `CCCCCc1cc(O)c(-c2cccc(C)c2)c2c1C(=O)OC(C)(C)O2` [Compound 2a, 7-hydroxy-2,2-dimethyl-8-(m-tolyl)-5-pentyl-1,3-benzodioxin-4-one], the concentration for half-maximal inhibition (IC50) at human CB1 receptor (setting [1]) lay in the range of 10 to 19.9 µM; at human CB2 receptor (setting [2]), 1 to 9.9 µM. The “Selectivity CB2” value on human CB2 receptor is given as 3.08 fold.
Consider `CCCCCc1cc(O)c(-c2cccc(C)c2)c2c1C(=O)OC(CC(C)=O)(c1ccccc1)O2` (centres unmarked) [Compound 12a, 2-acetonyl-7-hydroxy-8-(m-tolyl)-5-pentyl-2-phenyl-1,3-benzodioxin-4-one], for which the results for the IC50 at human CB1 receptor and at human CB2 receptor were above 20 µM and 10 to 19.9 µM, respectively. Besides, on human CB2 receptor, the “Selectivity CB2” value is reported as 1.53 fold.
